Data set [1] in a line: activity coefficient (dimensionless); of the first substance listed, at infinite dilution; xn = mol fraction of the nth substance listed. Particulars: 101.33 kPa, Liquid, Chromatography, x1 = 0.
The conditions of data set [2]: 101.33 kPa, Liquid, Vibrating tube method.

SMILES strings stand for the structures. ± gives the expanded uncertainty stated by the source.

One may read the mass density as mass per unit of volume.

As for `ClCCl` [dichloromethane] + CO[PH](=O)[O-].Cn1cc[n+](C)c1, the activity coefficient came out at 0.57 ± 0.04 in data set [1] (313.15 K), 0.65 ± 0.04 in data set [1] (323.15 K), 0.72 ± 0.05 in data set [1] (333.15 K) and 0.77 ± 0.05 in data set [1] (343.15 K).

Regarding `CCCCCCCCCCC` [undecane] + CCn1cc[n+](C)c1.CO[PH](=O)[O-], the activity coefficient in data set [1] (313.15 K) came to 1340 ± 93; in data set [1] (333.15 K), 1080 ± 74; in data set [1] (353.15 K), 888 ± 61.

`CC(C)CO` [2-methyl-1-propanol] + CCn1cc[n+](C)c1.CO[PH](=O)[O-]: the activity coefficient in data set [1] (353.15 K) was determined as 0.292 ± 0.031; in data set [1] (373.15 K), 0.309 ± 0.031.

For the compound `CCc1ccccc1` [ethylbenzene] + CO[PH](=O)[O-].Cn1cc[n+](C)c1, the activity coefficient in data set [1] (313.15 K) was determined as 22.7 ± 1.6; in data set [1] (323.15 K), 22.1 ± 1.5; in data set [1] (333.15 K) it was 21.7 ± 1.5; in data set [1] (343.15 K), 21.5 ± 1.5.

Turning to `CCC(C)=O` [butanone] + CO[PH](=O)[O-].Cn1cc[n+](C)c1, the activity coefficient in data set [1] (313.15 K) came out at 5.52 ± 0.38; in data set [1] (323.15 K), 5.16 ± 0.35; in data set [1] (333.15 K), 4.66 ± 0.32; in data set [1] (343.15 K), 4.17 ± 0.28.

With `c1ccncc1` [pyridine] + CCn1cc[n+](C)c1.CO[PH](=O)[O-], the activity coefficient came out at 1.77 ± 0.12 in data set [1] (313.15 K), 1.84 ± 0.12 in data set [1] (333.15 K), 1.95 ± 0.13 in data set [1] (353.15 K) and 2 ± 0.14 in data set [1] (373.15 K).

In the case of `Cc1ccccc1C` [1,2-dimethylbenzene] + CO[PH](=O)[O-].Cn1cc[n+](C)c1, the activity coefficient in data set [1] (313.15 K) is 19.2 ± 1.3; in data set [1] (323.15 K), 19.1 ± 1.3; in data set [1] (333.15 K), 18.6 ± 1.3; in data set [1] (343.15 K), 18.5 ± 1.3.

In the case of `ClC(Cl)Cl` [trichloromethane] + CO[PH](=O)[O-].Cn1cc[n+](C)c1, the activity coefficient came to 0.39 ± 0.03 in data set [1] (313.15 K), 0.43 ± 0.04 in data set [1] (323.15 K), 0.48 ± 0.04 in data set [1] (333.15 K) and 0.51 ± 0.04 in data set [1] (343.15 K).

Regarding `CCO` [ethanol] + CO[PH](=O)[O-].Cn1cc[n+](C)c1, in data set [1] (343.15 K), the activity coefficient was 0.16 ± 0.03.

For `CCc1ccccc1` [ethylbenzene] + CCn1cc[n+](C)c1.CO[PH](=O)[O-], the activity coefficient in data set [1] (313.15 K) was 11.4 ± 0.8; in data set [1] (333.15 K), 11.6 ± 0.8; in data set [1] (353.15 K), 11.7 ± 0.8; in data set [1] (373.15 K) it was 11.9 ± 0.8.

For `CCCCO` [butan-1-ol] + CCn1cc[n+](C)c1.CO[PH](=O)[O-], the activity coefficient in data set [1] (353.15 K) came out at 0.308 ± 0.031; in data set [1] (373.15 K) it was 0.324 ± 0.032.

Turning to `C1COCCO1` [1,4-dioxane] + CCn1cc[n+](C)c1.CO[PH](=O)[O-], the activity coefficient in data set [1] (313.15 K) was found to be 3.4 ± 0.23; in data set [1] (333.15 K), 3.55 ± 0.24; in data set [1] (353.15 K), 3.87 ± 0.26; in data set [1] (373.15 K), 4.33 ± 0.29.

Turning to `CC1CCCCC1` [methylcyclohexane] + CO[PH](=O)[O-].Cn1cc[n+](C)c1, in data set [1] (313.15 K), the activity coefficient came out at 257 ± 18.

On to `CCCO` [propan-1-ol] + CCn1cc[n+](C)c1.CO[PH](=O)[O-], for which the activity coefficient in data set [1] (353.15 K) came out at 0.207 ± 0.029; in data set [1] (373.15 K), 0.214 ± 0.029.

Take `C1CCCCC1` [cyclohexane] + CCn1cc[n+](C)c1.CO[PH](=O)[O-]: the activity coefficient in data set [1] (313.15 K) worked out at 89 ± 6; in data set [1] (333.15 K) it was 43.1 ± 3.

Turning to `c1ccccc1` [benzene] + CO[PH](=O)[O-].Cn1cc[n+](C)c1, the activity coefficient is 5.69 ± 0.39 in data set [1] (313.15 K), 5.58 ± 0.38 in data set [1] (323.15 K), 5.52 ± 0.38 in data set [1] (333.15 K) and 5.43 ± 0.37 in data set [1] (343.15 K).

Regarding `CC#N` [acetonitrile] + CO[PH](=O)[O-].Cn1cc[n+](C)c1, the activity coefficient in data set [1] (313.15 K) was determined as 1.1 ± 0.07; in data set [1] (323.15 K), 1.11 ± 0.07; in data set [1] (333.15 K), 1.12 ± 0.07; in data set [1] (343.15 K) it was 1.12 ± 0.07.

In the case of `CCn1cc[n+](C)c1.CO[PH](=O)[O-]` [1-ethyl-3-methylimidazolium methyl phosphonate], the mass density in data set [2] (293.15 K) was found to be 1190.6 ± 1.6 kg/m3; in data set [2] (303.15 K) it was 1184.1 ± 1.6 kg/m3; in data set [2] (313.15 K), 1180.1 ± 1.6 kg/m3; in data set [2] (323.15 K), 1174 ± 1.6 kg/m3; in data set [2] (333.15 K), 1168.7 ± 1.6 kg/m3; in data set [2] (343.15 K), 1163.2 ± 1.5 kg/m3.

As for `CCCCCCCCCC` [decane] + CO[PH](=O)[O-].Cn1cc[n+](C)c1, the activity coefficient in data set [1] (313.15 K) turned out to be 1220 ± 84; in data set [1] (323.15 K) it was 1210 ± 84.

As to `CC1CCCC1` [methylcyclopentane] + CCn1cc[n+](C)c1.CO[PH](=O)[O-], the activity coefficient in data set [1] (313.15 K) is 76 ± 5.

As for `C1COCCO1` [1,4-dioxane] + CO[PH](=O)[O-].Cn1cc[n+](C)c1, the activity coefficient worked out at 3.73 ± 0.25 in data set [1] (313.15 K), 3.72 ± 0.25 in data set [1] (323.15 K), 3.69 ± 0.25 in data set [1] (333.15 K) and 3.66 ± 0.25 in data set [1] (343.15 K).

`Cc1ccccc1C` [1,2-dimethylbenzene] + CCn1cc[n+](C)c1.CO[PH](=O)[O-]: the activity coefficient in data set [1] (313.15 K) worked out at 14.4 ± 1; in data set [1] (333.15 K), 15 ± 1; in data set [1] (353.15 K) it was 16.2 ± 1.1; in data set [1] (373.15 K) it was 18.8 ± 1.3.

For the compound `Cc1cccc(C)c1` [1,3-dimethylbenzene] + CO[PH](=O)[O-].Cn1cc[n+](C)c1, the activity coefficient in data set [1] (313.15 K) worked out at 24.5 ± 1.7; in data set [1] (323.15 K), 24.4 ± 1.7; in data set [1] (333.15 K), 23.6 ± 1.6; in data set [1] (343.15 K), 23.1 ± 1.6.

For `CCN(CC)CC` [triethylamine] + CCn1cc[n+](C)c1.CO[PH](=O)[O-], the activity coefficient in data set [1] (313.15 K) turned out to be 30.2 ± 2.1; in data set [1] (333.15 K), 48 ± 3.3.

In the case of `CO[PH](=O)[O-].Cn1cc[n+](C)c1` [1,3-dimethylimidazolium methyl phosphonate], the mass density in data set [2] (293.15 K) stood at 1252.5 ± 1.8 kg/m3; in data set [2] (303.15 K), 1246.4 ± 1.8 kg/m3; in data set [2] (313.15 K) it was 1241.7 ± 1.8 kg/m3; in data set [2] (323.15 K), 1233.4 ± 1.8 kg/m3; in data set [2] (333.15 K), 1227.2 ± 1.7 kg/m3; in data set [2] (343.15 K) it was 1220.8 ± 1.7 kg/m3.

For `C1CCCCCC1` [cycloheptane] + CCn1cc[n+](C)c1.CO[PH](=O)[O-], the activity coefficient in data set [1] (313.15 K) turned out to be 98.8 ± 6.8; in data set [1] (333.15 K), 180 ± 12; in data set [1] (353.15 K), 303 ± 21; in data set [1] (373.15 K) it was 438 ± 30.

As to `ClC(Cl)(Cl)Cl` [tetrachloromethane] + CCn1cc[n+](C)c1.CO[PH](=O)[O-], the activity coefficient stood at 4.38 ± 0.3 in data set [1] (313.15 K) and 4.96 ± 0.34 in data set [1] (333.15 K).

For `CCCCCCCCCCCCC` [tridecane] + CO[PH](=O)[O-].Cn1cc[n+](C)c1, the activity coefficient in data set [1] (313.15 K) was 2380 ± 160; in data set [1] (323.15 K), 2220 ± 150; in data set [1] (333.15 K) it was 2160 ± 150; in data set [1] (343.15 K), 2120 ± 150.

On to `CO` [methanol] + CCn1cc[n+](C)c1.CO[PH](=O)[O-], for which the activity coefficient in data set [1] (333.15 K) came to 0.072 ± 0.03; in data set [1] (353.15 K), 0.078 ± 0.03; in data set [1] (373.15 K), 0.088 ± 0.03.

As for `ClC(Cl)Cl` [trichloromethane] + CCn1cc[n+](C)c1.CO[PH](=O)[O-], the activity coefficient in data set [1] (313.15 K) amounted to 0.277 ± 0.03; in data set [1] (333.15 K), 0.358 ± 0.033; in data set [1] (353.15 K) it was 0.451 ± 0.036; in data set [1] (373.15 K) it was 0.544 ± 0.04.

For the compound `Cc1cccc(C)c1` [1,3-dimethylbenzene] + CCn1cc[n+](C)c1.CO[PH](=O)[O-], the activity coefficient in data set [1] (313.15 K) is 18.6 ± 1.3; in data set [1] (333.15 K) it was 18.8 ± 1.3; in data set [1] (353.15 K), 20.4 ± 1.4; in data set [1] (373.15 K), 24.9 ± 1.7.

`CCCCCCCCCCCCCC` [tetradecane] + CCn1cc[n+](C)c1.CO[PH](=O)[O-]: the activity coefficient in data set [1] (313.15 K) is 3490 ± 240; in data set [1] (333.15 K) it was 3010 ± 210; in data set [1] (353.15 K), 2610 ± 180; in data set [1] (373.15 K), 2270 ± 160.

With `CCO` [ethanol] + CCn1cc[n+](C)c1.CO[PH](=O)[O-], the activity coefficient was 0.148 ± 0.029 in data set [1] (333.15 K), 0.156 ± 0.029 in data set [1] (353.15 K) and 0.169 ± 0.029 in data set [1] (373.15 K).

(Values after the NIST ThermoML archive (doi:10.1016/j.jct.2015.02.023).)
